Data set [1] can be described thus: Pharmacokinetic evaluation in ICR mice after intravenous injection. In kind it is in vivo. To be noted: mouse; ICR male mice, 1.0 mg/kg intravenous, plasma. Here is the method: A test compound (1.0 mg/kg) was administered to fasted ICR male mice via intravenous injection, and blood samples were collected at time points of 0.08, 0.25, 0.5, 1, 2, 4, 6, 8 and 24 h after the administration. Plasma sample was separated by centrifugation (8000 rpm) and stored at −80° C. until the sample was analyzed. Concentrations of the test compound in the plasma were determined by HPLC-MS/MS: the plasma was dispensed into appropriate tubes containing internal standard and methanol or acetonitrile. The tubes were mixed vigorously for 3 minutes to achieve deproteinization and then centrifuged at 8000 rpm for 5 minutes. The supernatant was transferred to an autosampler vial, injected into the chromatographic system, and quantified on MS/MS detector. Pharmacokinetic parameters including AUC0-4, Cmax, Tmax, t1/2, MRT, Cl and Vd were calculated using WinNonlin 6.3 software. Table 3 summarizes key PK parameters for test compounds (AUC(0-t): the area under the curve from time 0 to time t; AUC(0-∞): the area under the curve from time 0 to infinity; t1/2: Half-life; CL: clearance; C0: the concentration of drug in blood if the drug molecules enter the circulation and are distributed immediately (i.e., at time 0)).

Data set [2] addresses T1, Recombinant human 5′-nucleotidase (hCD73) (Homo sapiens, UniProt P21589).
T1 sequence (P21589 27-549): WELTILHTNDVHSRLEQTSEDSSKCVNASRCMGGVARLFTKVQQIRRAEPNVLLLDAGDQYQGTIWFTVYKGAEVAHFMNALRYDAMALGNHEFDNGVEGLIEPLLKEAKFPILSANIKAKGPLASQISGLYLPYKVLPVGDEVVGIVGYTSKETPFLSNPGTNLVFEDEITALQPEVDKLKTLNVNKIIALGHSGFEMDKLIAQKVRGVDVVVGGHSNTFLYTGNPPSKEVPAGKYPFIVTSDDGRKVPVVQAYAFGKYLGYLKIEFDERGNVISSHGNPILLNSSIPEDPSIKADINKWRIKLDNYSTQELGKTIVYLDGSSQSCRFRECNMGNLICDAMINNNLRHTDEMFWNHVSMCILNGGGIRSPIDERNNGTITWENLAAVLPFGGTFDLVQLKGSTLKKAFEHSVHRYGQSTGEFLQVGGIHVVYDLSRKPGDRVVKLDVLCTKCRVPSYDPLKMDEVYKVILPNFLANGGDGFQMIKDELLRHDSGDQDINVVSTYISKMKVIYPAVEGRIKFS
The data set can be described thus: CD73 enzyme inhibition assay (recombinant hCD73, AMP substrate, phosphate detection). In kind it is biochemical. To be noted: 37° C. 20 min, absorbance 635 nm. Here is the method: Test compound solution preparation: Stock solution of a test compound was prepared in DMSO at 10 mM concentration. A series of preset 10-concentration solutions of a test compound were prepared by diluting the stock solution in 5-fold gradient dilution with DMSO.
Assay buffer (1×): […] Tris, 25 mM NaCl, 1 mM MgCl2, pH 7.5, 0.005% Tween-20 (freshly prepared, and ready for use).
An aliquot of 0.25 μL of compound solution or DMSO (blank control) was added to each test well of a micro well plate. Recombinant human 5′-nucleotidase (hCD73) was diluted to 1 nM in assay buffer; and an aliquot of 25 μL hCD73 (1 nM) solution was added to the corresponding wells of the plate. The contents of the well were well-mixed, and the plate was covered with sealing film, centrifuged at 1000 rpm for 30 sec., followed by incubation at room temperature for 15 min. AMP, the substrate, was diluted to 60 μM concentration in the assay buffer. To each reaction well was added 25 μL of AMP solution. After mixing well, the plate was covered with sealing film, centrifuged at 1000 rpm for 30 sec., and incubated at 37° C. for 20 min. The absorbance signal (end point) was measured on SPARK plate reader at 635 nm (See PiColorLock™ Gold Phosphate Detection System (Abcam) test kit for reference).
The reaction wells containing CD73 enzyme, substrate AMP and DMSO (no compound) were used as positive control, and the reaction wells containing substrate AMP and DMSO but no CD73 enzyme were used as negative control. The percent (%) inhibition at each concentration of compound was calculated based on and relative to the signal in the High and Low control wells contained within each assay plate. The High control wells were considered as 0% inhibition, and the low control wells, which didn't contain any compound but rather DMSO (final concentration=0.5%), as 100% inhibition. IC50 values were obtained using GraphPad Prism software.

The next data set deals with human T cell. The data set can be described thus: CD73 cellular assay (T cell stimulation assay: CellTiter-Glo proliferation and IFN-γ ELISA). In kind it is cell-based. To be noted: human T cells, anti-CD3/CD28, AMP + EHNA, 72 hours. Here is the method:
Day 2, human T cell seeding: (a) washing the coated plate (from Day 1) with sterilized PBS buffer (2×100 uL); (b) re-suspending T cells and adjusting cell density to 0.5×10^6 cells/mL with growth media (X-VIVO 15+1% Pen/strep+1% glutamine), and seeding 100 μL/well (50,000 cells/well) in 96-well plates; (c) diluting CD28 antibody for 8× working concentration (8 μg/mL) with growth media, giving 1 μg/mL of the final concentration, followed by addition of CD28 antibody (25 μL) to cell plate; incubating the plates under 5% CO2 at 37° C. for 60 min; (d) adding compound (25 μL, 8×dilution with growth media) to cell plate, and incubating the plates under 5% CO2 at 37° C. for 60 min; (e) adding AMP (25 μL) and EHNA (25 μL, 8×dilution with growth media) to cell plate; (f) incubating the plates under 5% CO2 at 37° C. for 72 hours.
Day 5, collecting cell growth media and testing cell proliferation: (a) centrifuging the cell plate (1,000 rpm) for 5 min; (b) harvesting 150 μL of the cell culture media from each well to 96 well plate, followed by measurement of IFN-r expression by ELISA test; (c) taking a portion of the cell culture supernatant for cytokine analysis, removing the remaining supernatant, followed by addition of fresh growth media (X-VIVO 15+1% Pen/strep+1% glutamine, 100 μL); (d) adding Celltiter-Glo solution (50 μL) into each well for the measurement of cell proliferation by: (e) incubating the plates at room temperature for 10 min on a shaker; (f) transferring 100 μL solution into 96-well white plate and taking the readout of the Celltiter-Glo data using a TECAN Reader.
On the technique in general: Cellular ATP, detected with luciferase, serves as a proxy for viable cell number.

Where [3] appears, read: read-out: EC50 CTG (CellTiter-Glo, cell proliferation).
Where [4] appears, read: read-out: EC50 IFN-γ (ELISA, indicator for T-cell activity).

Experimental findings from patent US20240024346A1, “CD73 INHIBITORS AND PHARMACEUTICAL USES THEREOF” (RISEN (SUZHOU) PHARMA TECH CO., LTD., priority 2020, published 2024) are described below.

Structures are written as SMILES. Like-named read-outs stand apart in the source and are kept apart here.

Take `O=P(O)(O)CP(=O)(O)OC[C@H]1O[C@@H](n2cnc3c(N4CCC5(CCCCC5)C4)nc(Cl)nc32)[C@@H](O)C1O` (some centres unmarked) [Compound b, reference compound]: the clearance in data set [1] is 1.85 mL/min/kg. Besides, the concentration for half-maximal inhibition (IC50) in data set [2] amounted to 1.08 nM. In addition, the EC50 with human T cell (setting [3]) is 7.53 nM; in the data set with human T cell (setting [4]), 14.2 nM.
Take `O=P(O)(O)CP(=O)(O)OC[C@H]1O[C@@H](n2cnc3c(N4CC5(CCc6ccccc65)C4)nc(Cl)nc32)[C@@H](O)C1O` (stereo partly drawn) [d-1]: the clearance in data set [1] is 2.65 mL/min/kg. Further, the concentration for half-maximal inhibition (IC50) in data set [2] worked out at 0.47 nM. Besides, the EC50 in the data set with human T cell (setting [3]) was 3.13 nM; in the data set with human T cell (setting [4]), 1.45 nM.
For `O=P(O)(O)CP(=O)(O)OC[C@H]1O[C@@H](n2cnc3c(N4CCC(c5ccccc5)(c5ccccc5)C4)nc(Cl)nc32)C(O)C1O` (stereo partly drawn) [d-33], the half-inhibitory concentration (IC50) in data set [2] amounted to 1.76 nM. The EC50 in the data set on human T cell (setting [3]) is 4.07 nM; in the data set on human T cell (setting [4]), 2.53 nM.

In general, clearance refers to the rate of elimination divided by the concentration. Lower therefore signals inefficient removal. For orientation: IC50 means the concentration that inhibits the measured activity by half.
